# Data reported in ChEMBL document CHEMBL1629703, “Novel hepatitis C virus reporter replicon cell lines enable efficient antiviral screening against genotype 1a” (Antimicrob Agents Chemother, 2010).
# Key:
# Hepatitis C virus [1] = experiment: Antiviral activity against Hepatitis C virus genotype 1a in luciferase encoding genotype 1a replicons after 3 days by luciferase reporter assay; format: functional, organism-based, Hepacivirus hominis; conditions: subtype 1a, 72 h
# Hepatitis C virus [2] = experiment: Antiviral activity against Hepatitis C virus genotype 1b in luciferase encoding genotype 1b replicons after 3 days by luciferase reporter assay; format: functional, organism-based, Hepacivirus hominis; conditions: 72 h
EC50 (Hepatitis C virus [2]),Structure (SMILES),EC50 (Hepatitis C virus [1])
618 nM,C[C@@]1(O)[C@H](O)[C@@H](CO)O[C@H]1n1cnc2c(N)ncnc21,733 nM
,COc1ccc2c(O[C@@H]3C[C@H]4C(=O)N[C@]5(C(=O)O)C[C@H]5/C=C\CCCCC[C@H](NC(=O)OC5CCCC5)C(=O)N4C3)cc(-c3csc(NC(C)C)n3)nc2c1 [CILUPREVIR],17 nM
1690 nM,CCC[C@H](NC(=O)[C@@H]1[C@H]2CCC[C@H]2CN1C(=O)[C@@H](NC(=O)[C@@H](NC(=O)c1cnccn1)C1CCCCC1)C(C)(C)C)C(=O)C(=O)NC1CC1 [TELAPREVIR],1250 nM

Structure (SMILES),EC50 (Hepatitis C virus [2]),EC50 (Hepatitis C virus [1])
CNC(=O)c1c(-c2ccc(F)cc2)oc2cc(N(CCO)S(C)(=O)=O)c(C3CC3)cc12 [NESBUVIR],22 nM,45 nM
